Like-named read-outs stand apart in the source and are kept apart here. Where no end group is shown, it is not given here.
Columns and labels:
[1] = tested on: in vitro BBB model: primary bovine brain capillary endothelial cells supported by primary rat glial cells
[2] = mouse, in vivo, iv
[3] = tested on: in vitro BBB model: primary bovine brain capillary endothelial cells supported by primary rat glial cells; remark: listed apart in the source
[4] = tested on: in vitro BBB model: primary bovine brain capillary endothelial cells supported by primary rat glial cells; assay: In vitro BBB model transcytosis of trypsin-digested sMTf, peptides identified by mass spectrometry; conditions: for Ablum 120:Area: MS peak area in abluminal compartment at 120 min; for Ablum 120:Area / Lum 120:Area: trypsin-digested sMTf 0.25 mg/mL luminal, Ringer-HEPES, 37°C, 2 h, LC-MS, one peptide may have several lines; for Lum 120:Area: MS peak area in luminal compartment at 120 min; for presence of MTf fragments on the abluminal side: after 2 h, SDS-PAGE and/or mass spectrometry
[5] = tested on: neurons, astrocytes, microglia, lysosomes, endosomes in the brain; assay: Cellular and subcellular localization of MTfp in mouse brain, 3D confocal microscopy; type: in vivo; conditions: mice injected IV with Cy5-MTfp
Description: Three sets of 3D fluorescence microscopy experiments were performed. The first set measured the BBB penetration of Cy5 tagged MTfp using DeltaVision Elite integrated with Huygens Deconvolution Software (GE, United States). As an extension of this, a set of sections were prepared to assess the cellular localization of the Cy-5 tagged MTfp in the CNS. The second set of experiments addressed the localization of Cy-5 tagged MTfp in various cell types and subcellular objects using the Leica SP8 X system (Leica, Germany).
The brains were removed and fixed with 4% paraformaldehyde overnight and then transferred into PBS+0.01% sodium azide and stored at 4°C. The brains were embedded in 4% agarose, fixed onto the microtome stage and sectioned (20 μm) at 4°C. The sections were stained with DAPI and then mounted on microscopic slides. Glass coverslips were mounted on the sections using Prolong Gold antifade reagent. In another experiment, to assess the localization of the peptide in the CNS, brains from mice injected with either PBS or Cy5-MTfp followed by FITC- tomato lectin. The brains were collected and processed as stated above. These were then incubated with antibodies targeted against neurons (NeuN; ab177487), microglia (TMEM; ab209064), astrocytes (GFAP; ab7260), lysosomes (LAMP-1; sc-19992-AF546) and endosomes (EEA-1; sc-137130), secondary antibody staining was done for unconjugated primary antibodies with Alexa fluor 680 goat anti-mouse IgG (cat# A21058), Alexa fluor 680 goat anti-rabbit IgG (Cat #A21076) and then counter-stained with DAPI, cover slipped, imaged and quantitatively analyzed to determine the extent of localization of various cell types and subcellular objects with MTfp.
The microscopy experiments, which quantitatively assessed the cellular location of MTfp within the brain, were performed using Leica SP8 X system (Leica, Germany). 3D confocal images were acquired with a Leica AOBS SP8 laser scanning confocal microscope (Leica, Heidelberg, Germany) using a high-resolution Leica 63X/1.4 or 40X/1.3 Plan-Apochromat oil immersion objective lens. Excitations were performed using either diode or tunable white light laser sources. All images and spectral data (except DAPI) were generated using the highly sensitive HyD detectors (with gated option) in de-scanned mode. The backscattered emission signals from the sample were delivered through the tunable filter (AOBS), the detection pinhole, spectral dispersion prism, and finally to the PMT/HyD detectors. For 3D image data set acquisition, the excitation beam was first focused at the maximum signal intensity focal position within the brain tissue sample and the appropriate HyD gain levels were then selected to obtain the pixel intensities within range of 0–255 (8-bit images) using a color gradient function. The beginning and end of the 3D stack were set based on the signal level degradation. Series of 2D images for a selected 3D stack volume were then acquired with 1,024 × 1,024 pixels. […]
For each tissue volume reported here, z-section images were compiled and finally the 3D image restoration was performed using VOLOCITY software (Perkin Elmar, United Kingdom). The volume estimation was performed on the 3D image data sets recorded from four or more cortical area of brain tissue samples. Algorithms were developed to automate the quantification of the test materials and blood capillaries, and to accurately quantify test materials localized in blood capillaries vs. brain parenchyma. […]

[6] = stable isotopic LC-MS; ref Singh et al., 2020; cited from earlier work
Description: In the context of the present study, the variability in conformation, glycosylation, anchoring and metal binding, presents potential complications to the use of sMTf as a robust, reproducible, clinically useful drug delivery vehicle. Therefore, to improve upon the utility of sMTf as a drug-delivery vector, we fragmented the protein in order to identify the minimally active region that retains the capability of carrying molecular cargo across the BBB. We report the identification of a 12 amino acid peptide (MTfp; […]), derived from melanotransferrin protein, that retains the ability cr ...

[7] = In vivo BBB penetration of Cy5-tagged peptides, 3D deconvolution fluorescence microscopy; conditions: mice, IV, Cy5 conjugates

Substance	Ablum 120:Area [1]	Lum 120:Area [1]	Abluminal vs. luminal [3]	Abluminal vs. total [3]	Ablum 120:Area [4]	Lum 120:Area [4]	presence of MTf fragments on the abluminal side [4]	also measured
GDSSGEGVCDKSPLER	1.93E+09	5.08E+08						
NYPSSLCALCVGDEQGR	7.34E+07	6.15E+08						
IQAEQVDAVTLSGEDIYTAGK	0.00E+00	3.48E+06						
AVSDYFGGSCVPGAGETSYSESLCR	5.49E+08	5.51E+09						
DSSHAFTLDELRYC [MTfp-Cy5]								VT ABVP (Volume of Parenchymal Test Article normalized to Parenchymal Volume), Mean [2]: 1.0 8E-03; fractional fluorescence in the brain parenchyma compared to mice injected with PBS or revMTfp-Cy5 [2]: Approximately two
ADVTEWR [ADVTEWR]			1.32%	0.82%	1.05E+10	9.31E+08	identified in the abluminal medium	
LCRGDSSGEGVCDK	2.64E+05	2.17E+05						
ADTDGGLIFRLLNEGQR	0.00E+00	3.69E+07						
TVGWNVPVGYLVESGR	0.00E+00	9.38E+07						
EHGLKPVVGEVYDQEVGTSYYAVAVVRR	1.70E+07	0.00E+00						
ADTDGGLIFR			2.16%	1.60%	1.59E+10	1.11E+10	identified in the abluminal medium	
DSSHAFTLDELRGK	1.99E+07	0.00E+00						
YYDYSGAFR			0.13%	0.05%	6.41E+09	1.00E+09	identified in the abluminal medium	
DSSHAFTLDELR [MTfp]			2.41%	1.90%	5.87E+09	1.03E+10	identified in the abluminal medium	MTfp found in the early endosomes ([5]; EEA-1 marker): approximately 20%; MTfp found in the lysosomes ([5]; LAMP-1 marker): 40%; astrocytes expressing GFAP co-labeled with MTfp ([5]; fluorescence volume fraction): 70%; microglia expressing TMEM co-labeled with MTfp ([5]; fluorescence volume fraction): 80%; neurons expressing NeuN co-labeled with MTfp ([5]; fluorescence volume fraction): 90%; initial rate of entry into the brain [6]: 2.1 nM/min; BBB penetration efficiency compared with RVGp [7]: statistically similar
RLEDLTFAHSSDYC [revMTfp-Cy5, reference compound]								VT ABVP (Volume of Parenchymal Test Article normalized to Parenchymal Volume), Mean [2]: 6.6 7E-04
VPAHAVVVR			2.49%	1.52%	1.24E+08	3.48E+07	identified in the abluminal medium	

Source: article PMC8212695, “Discovery of a Highly Conserved Peptide in the Iron Transporter Melanotransferrin that Traverses an Intact Blood Brain Barrier and Localizes in Neural Cells” (Frontiers in Neuroscience, 2021)
